Assays:
[1] = molecular target: T1, NS5B proteins of HCV genotype 1b (Con1) (Hepatitis C virus genotype 1b, UniProt Q9WMX2); assay: HCV NS5B RdRp enzyme assay; type: biochemical; details: 1b enzyme
T1 construct: Each untagged protein was expressed with an 18 amino acid C-terminal truncation to enhance the solubility; made in house; host or cells: E. coli BL21(DE3), pET21a
Description: HCVNS5B RdRp Cloning, Expression, and Purification.
The cDNA encoding NS5B proteins of HCV genotype 1b (Con1), a genotype 1b variant with amino acid 316 mutated from cysteine to asparagine, and genotype 2a (JFH-1), were cloned into the pET21a expression vector. Each untagged protein was expressed with an 18 amino acid C-terminal truncation to enhance the solubility. The E. coli competent cell line BL21(DE3) was used for expression of the protein. Cultures were grown at 37° C. for ˜4 hours until the cultures reached an optical density of 2.0 at 600 nm. The cultures were cooled to 20° C. and induced with 1 mM IPTG. Fresh ampicillin was added to a final concentration of 50 μg/mL and the cells were grown overnight at 20° C.
Cell pellets (3 L) were lysed for purification to yield 15-24 mgs of purified NS5B. The lysis buffer consisted of 20 mM Tris-HCl, pH 7.4, 500 mM NaCl, 0.5% triton X-100, 1 mM DTT, 1 mM EDTA, 20% glycerol, 0.5 mg/mL lysozyme, 10 mM MgCl2, 15 ug/mL deoxyribonuclease I, and Complete TM protease inhibitor tablets (Roche). After addition of the lysis buffer, frozen cell pellets were resuspended using a tissue homogenizer. To reduce the viscosity of the sample, aliquots of the lysate were sonicated on ice using a microtip attached to a Branson sonicator. The sonicated lysate was centrifuged at 100,000×g for 30 minutes at 4° C. and filtered through a 0.2 μm filter unit (Corning).
The protein was purified using two sequential chromatography steps: Heparin sepharose CL-6B and polyU sepharose 4B. The chromatography buffers were identical to the lysis buffer but contained no lysozyme, deoxyribonuclease I, MgCl2 or protease inhibitor and the NaCl concentration of the buffer was adjusted according to the requirements for charging the protein onto the column. Each column was eluted with a NaCl gradient which varied in length from 5-50 column volumes depending on the column type. After the final chromatography step, the resulting purity of the enzyme is >90% based on SDS-PAGE analysis. The enzyme was aliquoted and stored at −80° C.
HCVNS5B RdRp Enzyme Assay.
An on-bead solid phase homogeneous assay was used in a 384-well format to assess NS5B inhibitors (WangY-K, Rigat K, Roberts S, and Gao M (2006) Anal Biochem, 359: 106-111). The biotinylated oligo dT12 primer was captured on streptavidin-coupled imaging beads (GE, RPNQ0261) by mixing primer and beads in 1× buffer and incubating at room temperature for three hours. Unbound primer was removed after centrifugation. The primer-bound beads were resuspended in 3× reaction mix (20 mM Hepes buffer, pH 7.5, dT primer coupled beads, poly A template, ^3H-UTP, and RNAse inhibitor (Promega N2515)). Compounds were serially diluted 1:3 in DMSO and aliquoted into assay plates. Equal volumes (10 μL) of water, 3× reaction mix, and enzyme in 3× assay buffer (60 mM Hepes buffer, pH 7.5, 7.5 mM MgCl2, 7.5 mM KCl, 3 mM DTT, 0.03 mg/mL BSA, 6% glycerol) were added to the diluted compound on the assay plate. Final concentration of components in 384-well assay: 0.36 nM template, 15 nM primer, 0.29 μM ^3H-UTP (0.3 μCi), 1.6 U/μL RNAse inhibitor, 7 nM NS5B enzyme, 0.01 mg/mL BSA, 1 mM DTT, and 0.33 μg/μL beads, 20 mM Hepes buffer, pH 7.5, 2.5 mM MgCl2, 2.5 mM KCl, and 0.1% DMSO.
Reactions were allowed to proceed from 4 to 24 hours at 30° C. For 24 hour reactions, enzyme and inhibitors were pre-incubated for 24 hours before adding template and primer. Reactions were terminated by the addition of 50 mM EDTA (10 μL). After incubating for at least 15 minutes, plates were read on an Amersham LEADseeker multimodality imaging system.
IC50 values for compounds were determined using ten different [I]. IC50 values were calculated from the inhibition using the four-parameter logistic formula y=A+((B−A)/(1+((C/x)^D))), where A and B denote minimal and maximal % inhibition, respectively, C is the IC50, D is hill slope and x represents compound concentration.

[2] = system: genotype 1b (Con-1) HCV replicon in Huh-7 cells; assay: HCV replicon luciferase assay; type: cell-based; details: 1b replicon, Huh-7, Renilla luciferase, 3 days incubation
Description: The cell lines used to evaluate compounds consist of a human hepatocyte derived cell line (Huh-7) that constitutively expresses a genotype 1b (Con-1) HCV replicon or a genotype 1b (Con-1) HCV replicon with an asparagine replacing the cysteine at amino acid 316, or a genotype 2a (JFH-1) replicon, containing a Renilla luciferase reporter gene. These cells were maintained in Dulbecco's modified Eagle medium (DMEM) containing 10% FBS, 100 U/mL penicillin/streptomycin and 1.0 mg/mL G418.
HCV Replicon Luciferase Assay.
To evaluate compound efficacy, titrated compounds were transferred to sterile 384-well tissue culture treated plates, and the plates were seeded with HCV replicon cells (50 μL at a density of 2.4×10^3 cells/well) in DMEM containing 4% FBS (final DMSO concentration at 0.5%). After 3 days incubation at 37° C., cells were analyzed for Renilla Luciferase activity using the EnduRen substrate (Promega cat # E6485) according to the manufacturer's directions. Briefly, the EnduRen substrate was diluted in DMEM and then added to the plates to a final concentration of 7.5 μM. The plates were incubated for at least 1 h at 37° C. then read on a Viewlux Imager (PerkinElmer) using a luminescence program. The 50% effective concentration (EC50) was calculated using the four-parameter logistic formula noted above.

T1 sequence (Q9WMX2 2420-2992): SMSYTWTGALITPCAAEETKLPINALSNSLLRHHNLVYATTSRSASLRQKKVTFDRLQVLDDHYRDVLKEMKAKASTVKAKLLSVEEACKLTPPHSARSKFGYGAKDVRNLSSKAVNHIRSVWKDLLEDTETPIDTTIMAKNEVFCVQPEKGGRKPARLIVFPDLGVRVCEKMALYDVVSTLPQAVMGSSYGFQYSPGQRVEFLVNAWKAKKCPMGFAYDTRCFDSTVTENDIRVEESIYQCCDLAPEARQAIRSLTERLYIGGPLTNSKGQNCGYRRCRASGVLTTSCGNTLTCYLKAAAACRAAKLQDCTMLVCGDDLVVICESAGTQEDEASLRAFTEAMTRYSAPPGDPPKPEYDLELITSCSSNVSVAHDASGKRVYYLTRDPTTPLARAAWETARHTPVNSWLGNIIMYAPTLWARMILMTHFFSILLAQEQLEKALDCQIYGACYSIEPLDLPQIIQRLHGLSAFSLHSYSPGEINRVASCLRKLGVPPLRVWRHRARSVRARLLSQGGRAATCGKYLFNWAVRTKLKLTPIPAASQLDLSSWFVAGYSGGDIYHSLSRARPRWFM

| Compound | IC50 [1] | EC50 [2] | EC50 ([2]; Hepatitis C virus, Huh-7, 72 h) |
| --- | --- | --- | --- |
| CNC(=O)c1c(-c2ccc(F)cc2)oc2ccc(-c3cc(C(=O)NC4(c5ncccn5)CC(O)C4)ccc3C)c(F)c12 (single isomer, unassigned) [Example 5a, 4-Fluoro-2-(4-fluorophenyl)-5-(5-((3-hydroxy-1-(pyrimidin-2-yl)cyclobutyl)carbamoyl)-2-methylphenyl)-N-methylbenzofuran-3-carboxamide] | 1280 nM | 3860 nM | – |
| CNC(=O)c1c(-c2ccc(F)cc2)oc2ccc(-c3cc(C(=O)NC4(c5ncccn5)CC(O)C4)ccc3C)c(F)c12 (single isomer, unassigned) [Example 5b, 4-Fluoro-2-(4-fluorophenyl)-5-(5-((3-hydroxy-1-(pyrimidin-2-yl)cyclobutyl)carbamoyl)-2-methylphenyl)-N-methylbenzofuran-3-carboxamide] | 230 nM | 1190 nM | – |
| CNC(=O)c1c(-c2ccc(F)cc2)oc2ccc(-c3cc(C(=O)NC4(c5ncccn5)CC(O)C4)cc(F)c3C)c(F)c12 (single isomer, unassigned) [Example 9a, 4-Fluoro-5-(3-fluoro-5-((3-hydroxy-1-(pyrimidin-2-yl)cyclobutyl)carbamoyl)-2-methylphenyl)-2-(4-fluorophenyl)-N-methylbenzofuran-3-carboxamide] | 570 nM | – | 470 nM |
| CNC(=O)c1c(-c2ccc(F)cc2)oc2ccc(-c3cc(C(=O)NC4(c5ncccn5)CC(O)C4)cc(F)c3C)c(F)c12 (single isomer, unassigned) [Example 9b, 4-Fluoro-5-(3-fluoro-5-((3-hydroxy-1-(pyrimidin-2-yl)cyclobutyl)carbamoyl)-2-methylphenyl)-2-(4-fluorophenyl)-N-methylbenzofuran-3-carboxamide] | 310 nM | 300 nM | – |
| CNC(=O)c1c(-c2ccc(F)cc2)oc2ccc(-c3cc(C(=O)NC4(c5ncccn5)CC(OC)C4)ccc3C)c(F)c12 (single isomer, unassigned) [Example 10a, 4-Fluoro-2-(4-fluorophenyl)-5-(5-((3-methoxy-1-(pyrimidin-2-yl)cyclobutyl)carbamoyl)-2-methylphenyl)-N-methylbenzofuran-3-carboxamide] | 60 nM | 30 nM | – |
| CNC(=O)c1c(-c2ccc(F)cc2)oc2ccc(-c3cc(C(=O)NC4(c5ncccn5)CC(OC)C4)ccc3C)c(F)c12 (single isomer, unassigned) [Example 10b, 4-Fluoro-2-(4-fluorophenyl)-5-(5-((3-methoxy-1-(pyrimidin-2-yl)cyclobutyl)carbamoyl)-2-methylphenyl)-N-methylbenzofuran-3-carboxamide] | 10 nM | 4.43 nM | – |
| CCN(c1cc2oc(-c3ccc(F)cc3)c(C(=O)NC)c2c(F)c1-c1cccc(C(=O)NC2(c3ncccn3)CC(F)C2)c1)S(C)(=O)=O (stereo not drawn) [Example 22, 6-(N-ethylmethylsulfonamido)-4-fluoro-5-(3-((3-fluoro-1-(pyrimidin-2-yl)cyclobutyl)carbamoyl)phenyl)-2-(4-fluorophenyl)-N-methylbenzofuran-3-carboxamide] | – | – | 4.94 nM |
| CCN(c1cc2oc(-c3ccc(F)cc3)c(C(=O)NC)c2cc1-c1cccc(C(=O)NC2(c3ncccn3)CC(OC(F)F)C2)c1)S(C)(=O)=O (stereo not drawn) [Example 24, 5-(3-((3-(difluoromethoxy)-1-(pyrimidin-2-yl)cyclobutyl)carbamoyl)phenyl)-6-(N-ethylmethylsulfonamido)-2-(4-fluorophenyl)-N-methylbenzofuran-3-carboxamide] | – | – | 2.2 nM |
| CCN(c1cc2oc(-c3ccc(F)cc3)c(C(=O)NC)c2c(F)c1-c1ccc(OC)c(C(=O)NC2(c3ncccn3)CC(F)C2)c1)S(C)(=O)=O (stereo not drawn) [Example 26, 6-(N-ethylmethylsulfonamido)-4-fluoro-5-(3-((3-fluoro-1-(pyrimidin-2-yl)cyclobutyl)carbamoyl)-4-methoxyphenyl)-2-(4-fluorophenyl)-N-methylbenzofuran-3-carboxamide] | – | – | 2.25 nM |
| CCCc1cc2oc(-c3ccc(F)cc3)c(C(=O)NC)c2cc1-c1ccc(F)c(C(=O)NC2(c3ncccn3)CC(OC(F)F)C2)c1 (stereo not drawn) [Example 32, 5-(3-((3-(Difluoromethoxy)-1-(pyrimidin-2-yl)cyclobutyl)carbamoyl)-4-fluorophenyl)-2-(4-fluorophenyl)-N-methyl-6-propylbenzofuran-3-carboxamide] | – | – | 9.02 nM |
| CCCc1cc2oc(-c3ccc(F)cc3)c(C(=O)NC)c2cc1-c1cccc(C(=O)NC2(c3ncccn3)CC(OC(F)F)C2)c1 (stereo not drawn) [Example 33, 5-(3-((3-(Difluoromethoxy)-1-(pyrimidin-2-yl)cyclobutyl)carbamoyl)phenyl)-2-(4-fluorophenyl)-N-methyl-6-propylbenzofuran-3-carboxamide] | – | – | 4.55 nM |
| CCCc1cc2oc(-c3ccc(F)cc3)c(C(=O)NC)c2cc1-c1ccc(OC)c(C(=O)NC2(c3ncccn3)CC(OC(F)F)C2)c1 (stereo not drawn) [Example 37] | – | – | 6.08 nM |
| CCCc1cc2oc(-c3ccc(F)cc3)c(C(=O)NC)c2cc1-c1cc(C(=O)NC2(c3ncccn3)CC(OC(F)F)C2)c(OC)cc1C (stereo not drawn) [Example 39, 5-(5-((3-(Difluoromethoxy)-1-(pyrimidin-2-yl)cyclobutyl)carbamoyl)-4-methoxy-2-methylphenyl)-2-(4-fluorophenyl)-N-methyl-6-propylbenzofuran-3-carboxamide] | – | – | 20 nM |
| CNC(=O)c1c(-c2ccc(F)cc2)oc2cc(CCC(F)(F)F)c(-c3cc(C(=O)NC4(c5ncccn5)CC(OC(F)F)C4)c(OC)cc3C)cc12 (stereo not drawn) [Example 41, 5-(5-((3-(Difluoromethoxy)-1-(pyrimidin-2-yl)cyclobutyl)carbamoyl)-4-methoxy-2-methylphenyl)-2-(4-fluorophenyl)-N-methyl-6-(3,3,3-trifluoropropyl)benzofuran-3-carboxamide] | – | – | 20 nM |
| CCOc1cc2oc(-c3ccc(F)cc3)c(C(=O)NC)c2cc1-c1cccc(C(=O)NC2(c3ncon3)CC(OC(F)F)C2)c1 (stereo not drawn) [Example 70, 5-(3-((3-(Difluoromethoxy)-1-(1,2,4-oxadiazol-3-yl)cyclobutyl)carbamoyl)phenyl)-6-ethoxy-2-(4-fluorophenyl)-N-methylbenzofuran-3-carboxamide] | – | – | 6.47 nM |
